A word on the pIC50: it is the negative decadic logarithm of the IC50, by convention in mol/L.

This is an account of results in patent publication US5120758A, “Certain benzodioxole, benzodioxane and benzodioxepin derivatives useful as 5-lipoxygenase inhibitors” (Ciba-Geigy Corporation, priority 1991, dated 1992).

pIC50: −log10 of the molar value. Like-named read-outs stand apart in the source and are kept apart here.

Assay [1] concerns the target T1, 5-lipoxygenase (Cavia porcellus, UniProt A0A286X958).
T1 construct: in A-23187-stimulated guinea pig polymorphonuclear leukocytes; endogenous in cells; host or cells: guinea pig polymorphonuclear leukocytes
T1 sequence (A0A286X958 1-674): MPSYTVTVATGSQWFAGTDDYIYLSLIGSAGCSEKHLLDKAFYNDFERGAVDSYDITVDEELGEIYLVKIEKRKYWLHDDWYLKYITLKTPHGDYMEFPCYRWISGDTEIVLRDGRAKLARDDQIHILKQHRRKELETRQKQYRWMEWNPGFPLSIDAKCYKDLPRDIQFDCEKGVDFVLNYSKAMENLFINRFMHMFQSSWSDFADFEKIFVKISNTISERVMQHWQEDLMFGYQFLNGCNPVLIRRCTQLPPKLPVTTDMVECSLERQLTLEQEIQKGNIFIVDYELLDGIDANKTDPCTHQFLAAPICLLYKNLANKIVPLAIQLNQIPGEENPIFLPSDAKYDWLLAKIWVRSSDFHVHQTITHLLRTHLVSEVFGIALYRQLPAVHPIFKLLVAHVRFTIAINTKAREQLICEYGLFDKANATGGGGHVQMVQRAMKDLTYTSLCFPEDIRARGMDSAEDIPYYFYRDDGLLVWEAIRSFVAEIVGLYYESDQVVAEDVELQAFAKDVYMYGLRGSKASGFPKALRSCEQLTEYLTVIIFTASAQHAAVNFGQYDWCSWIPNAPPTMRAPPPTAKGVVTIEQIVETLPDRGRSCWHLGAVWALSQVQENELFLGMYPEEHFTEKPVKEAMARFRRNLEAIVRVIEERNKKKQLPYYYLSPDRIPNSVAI
Kind of assay: Inhibition of 5-HETE and LTB4 synthesis in A-23187-stimulated guinea pig polymorphonuclear leukocytes. Format: cell-based. The procedure:
5-Lipoxygenase inhibition is determined e.g. by measuring the percent inhibition of the synthesis of 5-HETE [(5S)-5-hydroxy-6,8,11,14-eicosa-tetraenoic acid] and leukotriene B4 (LTB4, 5,12-dihydroxy-6,8,10,14-eicosatetraenoic acid) in A-23187-stimulated guinea pig polymorphonuclear leukocytes, essentially according to radiometric thin-layer chromatographic assays described by Walker and Dawson (J. Pharm. Pharmacol. 31: 778, 1979) and Jakschik and Lee (Nature 287: 51, 1980) to measure the formation of 5-HETE and LTB4 -like products from ^14 C-arachidonic acid. IC50 values are determined graphically as the concentration of test compound at which the synthesis of 5-HETE and LTB4 -like products is reduced to 50% of their respective control values.

In assay [2] the test system is 5-lipoxygenase. Put plainly: Ex vivo inhibition of A-23187-stimulated LTB4 formation in whole blood after oral administration. The settings on record: dose of about 1.0 mg/kg p.o. to the dog. The procedure:
Furthermore, the inhibition of 5-lipoxygenase is determined after oral or i.v. administration to rats or dogs by measuring ex vivo in whole blood the decrease of A-23187-stimulated LTB4 formation as compared to non-treated control animals.

`NC(=O)N(O)CC1COc2ccc(Oc3ccc(F)cc3)cc2O1` (stereo not drawn) [1(c), 2-(N-aminocarbonyl-N-hydroxy)aminomethyl-7-(4-fluorophenoxy)-1,4-benzodioxane]: the pIC50 on 5-lipoxygenase [1] (read-out: IC50, inhibition of formation of 5-HETE) is approximately 7.00; on 5-lipoxygenase [1] (read-out: IC50, inhibition of formation of leukotriene B4 (LTB4)), approximately 6.92. Besides, the “inhibition of LTB4 formation as determined ex vivo” value in the assay on 5-lipoxygenase [2] was “significant inhibition”.
